From patent US4720546A (priority 1984, dated 1988)
Converted amounts (≈) assume the structure as drawn.

Tests used:
in vivo = conditions: mouse, po
Candida albicans = assay: fungistatic activity test in Casiton agar test tubes (MIC), Candida albicans; assay type: cell-based; conditions: 48 h, read-out: MIC values, C. albicans
Histoplasma capsulatum = assay: microbe, parasite or virus in culture; assay type: cell-based; conditions: 168 h, read-out: MIC values, H. capsulatum

Compound	LD50 (in vivo) [mg/kg]	MIC (Candida albicans) [µg/mL]	MIC (Histoplasma capsulatum) [µg/mL]
Clc1ccc([C@@]2(Cn3ccnc3)OC[C@H](COc3ccc(N4CCSCC4)cc3)O2)c(Cl)c1 (relative stereo) [CH CH 0, cis-4-[4-[[2-(2,4-dichlorophenyl)-2-[(imidazol-1-yl)methyl]-1,3-dioxolan-4-yl]methoxy]phenyl]tetrahydro-4H-1,4-thiazine]	~1000	1 to 100 (≈ 1.97 to 197 µM)	10 (≈ 19.7 µM)
[O-][S+]1CCN(c2ccc(OC[C@H]3CO[C@](Cn4ccnc4)(c4ccc(Cl)cc4Cl)O3)cc2)CC1 (relative stereo) [CH CH 1, cis-4-[4-[[2-(2,4-dichlorophenyl)-2-[(imidazol-1-yl)methyl]-1,3-dioxolan-4-yl]methoxy]-phenyl]-tetrahydro-4H-1,4-thiazine 1-oxide]	~1000	1 to 100 (≈ 1.91 to 191 µM)	10 (≈ 19.1 µM)
O=S1(=O)CCN(c2ccc(OC[C@H]3CO[C@](Cn4ccnc4)(c4ccc(Cl)cc4Cl)O3)cc2)CC1 (relative stereo) [CH CH 2, cis-4-[4-[[2-(2,4-dichlorophenyl)-2-[(imidazol-1-yl)methyl]-1,3-dioxolan-4-yl]methoxy]phenyl]-tetrahydro-4H-1,4-thiazine 1,1-dioxide]	≥ 4000	0.1 to 1 (≈ 0.186 to 1.86 µM)	1 (≈ 1.86 µM)
Clc1ccc([C@@]2(Cn3cncn3)OC[C@H](COc3ccc(N4CCSCC4)cc3)O2)c(Cl)c1 (relative stereo) [CH N 0, cis-4-[4-[[2-(2,4-dichlorophenyl)-2-[(1H-1,2,4-triazol-1-yl)methyl]-1,3-dioxolan-4-yl]methoxy]phenyl]-tetrahydro-4H-1,4-thiazine]	≥ 5000	0.1 to 1 (≈ 0.197 to 1.97 µM)	10 (≈ 19.7 µM)
[O-][S+]1CCN(c2ccc(OC[C@H]3CO[C@](Cn4cncn4)(c4ccc(Cl)cc4Cl)O3)cc2)CC1 (relative stereo) [CH N 1, cis-4-[4-[[2-(2,4-dichlorophenyl)-2-[(1H-1,2,4-triazol-1-yl)methyl]-1,3-dioxolan-4-yl]methoxy]phenyl]-tetrahydro-4H-1,4-thiazine 1-oxide]	~4000	1 to 100 (≈ 1.91 to 191 µM)	100 (≈ 191 µM)
O=S1(=O)CCN(c2ccc(OC[C@H]3CO[C@](Cn4cncn4)(c4ccc(Cl)cc4Cl)O3)cc2)CC1 (relative stereo) [CH N 2, cis-4-[4-[[2-(2,4-dichlorophenyl)-2-[(1H-1,2,4-triazol-1-yl)methyl]-1,3-dioxolan-4-yl]methoxy]phenyl]-tetrahydro-4H-1,4-thiazine 1,1-dioxide]	≥ 5000	0.1 to 10 (≈ 0.185 to 18.5 µM)	1 (≈ 1.85 µM)
O=S1(=O)CCN(c2ccc(OC[C@H]3CO[C@](Cn4cnnc4)(c4ccc(Cl)cc4Cl)O3)cc2)CC1 (relative stereo) [N CH 2, cis-4-[4-[[2-(2,4-dichlorophenyl)-2-[(4H-1,2,4-triazol-4-yl)methyl]-1,3-dioxolan--4-yl]methoxy]phenyl]-tetrahydro-4H-1,4-thiazine 1,1-dioxide]	≥ 4000	0.1 to 10 (≈ 0.185 to 18.5 µM)	> 100
